Measured values: ChEMBL document CHEMBL4321794, “Discovery and Optimization of 2-Arylquinazolin-4-ones into a Potent and Selective Tankyrase Inhibitor Modulating Wnt Pathway Activity” (J Med Chem, 2019)

Assays:
[1] = target: Poly [ADP-ribose] polymerase 2 (Homo sapiens, UniProt Q9UGN5); assay: Inhibition of N-terminal GST-tagged recombinant human PARP2 (2 to 583 residues) expressed in Baculovirus infected Sf9 cells using biotinylated substrate after 1 hr by chemiluminescence method
[2] = Time at which free-drug concentration exceeds in vitro cellular EC50 for inhibition of tankyrase 1/2 in human DLD1 cells assessed as increase in axin2 accumulation in mouse xenografted with human DLD1 at 90 mg/kg, po administered via gavage; type: organism-based; details: in vivo
[3] = target: T1, Protein mono-ADP-ribosyltransferase PARP15 (Homo sapiens, UniProt Q460N3); assay: Inhibition of human N-terminal GST-tagged PARP15 (221 to 444 residues) expressed in Escherichia coli using biotinylated substrate by chemiluminescence method
T1 sequence (Q460N3 whole entry): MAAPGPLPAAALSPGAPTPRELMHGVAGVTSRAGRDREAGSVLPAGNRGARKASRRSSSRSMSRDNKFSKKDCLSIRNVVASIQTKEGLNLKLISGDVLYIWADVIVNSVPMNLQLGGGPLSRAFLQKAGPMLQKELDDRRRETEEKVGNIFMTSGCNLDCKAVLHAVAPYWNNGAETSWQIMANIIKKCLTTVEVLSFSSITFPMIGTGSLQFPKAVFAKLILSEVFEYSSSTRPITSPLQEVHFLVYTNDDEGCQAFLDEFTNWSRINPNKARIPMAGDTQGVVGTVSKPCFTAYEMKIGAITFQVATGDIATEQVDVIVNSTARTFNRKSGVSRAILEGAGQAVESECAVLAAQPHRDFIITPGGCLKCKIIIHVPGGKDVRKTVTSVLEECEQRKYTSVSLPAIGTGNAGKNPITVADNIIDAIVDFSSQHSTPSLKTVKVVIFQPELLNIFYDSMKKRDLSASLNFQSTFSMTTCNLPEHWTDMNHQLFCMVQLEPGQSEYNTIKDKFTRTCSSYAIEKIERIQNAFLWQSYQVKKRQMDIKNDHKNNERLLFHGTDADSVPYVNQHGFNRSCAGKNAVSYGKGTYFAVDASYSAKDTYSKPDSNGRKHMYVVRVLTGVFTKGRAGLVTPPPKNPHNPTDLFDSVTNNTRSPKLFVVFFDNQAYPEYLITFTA

[4] = target: Poly [ADP-ribose] polymerase 1 (Homo sapiens, UniProt P09874); assay: Inhibition of recombinant human full-length Myc/His-tagged Parp-1 expressed in baculovirus infected Sf21 insect cells assessed as reduction in auto-PARsylation using activated DNA as substrate incubated for 150 mins in presence of NAD and bio-NAD as co-substrate by TR-FRET assay
[5] = Apparent permeability across apical to basolateral side in human Caco2 cells at 1 uM after 2 hrs by LC-MS/MS analysis; type: ADME, cell-based; details: Caco-2
[6] = Intrinsic clearance in human hepatocytes assessed per million cells; type: ADME, cell-based, Hepatocyte; details: read-out: CLH
[7] = target: Protein mono-ADP-ribosyltransferase PARP6 (Homo sapiens, UniProt Q2NL67); assay: Inhibition of N-terminal GST-tagged recombinant human full length PARP6 expressed in Baculovirus infected Sf9 cells using biotinylated substrate after 1 hr by chemiluminescence method
[8] = Protein binding in mouse plasma assessed as unbound fraction at 30 mg/kg, po; type: ADME, organism-based
[9] = Time at which free-drug concentration exceeds in vitro cellular EC50 for inhibition of tankyrase 1/2 in human DLD1 cells assessed as increase in axin2 accumulation in mouse at 30 mg/kg, po; type: organism-based; details: in vivo
[10] = Intrinsic clearance in mouse liver microsomes assessed per mg protein in presence of NADPH by UPLC analysis; type: ADME, Microsome; details: read-out: CLH
[11] = Half-life in mouse; type: ADME, organism-based; details: in vivo
[12] = target: T2, Protein mono-ADP-ribosyltransferase PARP12 (Homo sapiens, UniProt Q9H0J9); assay: Inhibition of human N-terminal His/GST-tagged PARP12 (500 to 701 residues) expressed in baculovirus infected Sf9 insect cells using biotinylated substrate by chemiluminescence method
T2 sequence (Q9H0J9 whole entry): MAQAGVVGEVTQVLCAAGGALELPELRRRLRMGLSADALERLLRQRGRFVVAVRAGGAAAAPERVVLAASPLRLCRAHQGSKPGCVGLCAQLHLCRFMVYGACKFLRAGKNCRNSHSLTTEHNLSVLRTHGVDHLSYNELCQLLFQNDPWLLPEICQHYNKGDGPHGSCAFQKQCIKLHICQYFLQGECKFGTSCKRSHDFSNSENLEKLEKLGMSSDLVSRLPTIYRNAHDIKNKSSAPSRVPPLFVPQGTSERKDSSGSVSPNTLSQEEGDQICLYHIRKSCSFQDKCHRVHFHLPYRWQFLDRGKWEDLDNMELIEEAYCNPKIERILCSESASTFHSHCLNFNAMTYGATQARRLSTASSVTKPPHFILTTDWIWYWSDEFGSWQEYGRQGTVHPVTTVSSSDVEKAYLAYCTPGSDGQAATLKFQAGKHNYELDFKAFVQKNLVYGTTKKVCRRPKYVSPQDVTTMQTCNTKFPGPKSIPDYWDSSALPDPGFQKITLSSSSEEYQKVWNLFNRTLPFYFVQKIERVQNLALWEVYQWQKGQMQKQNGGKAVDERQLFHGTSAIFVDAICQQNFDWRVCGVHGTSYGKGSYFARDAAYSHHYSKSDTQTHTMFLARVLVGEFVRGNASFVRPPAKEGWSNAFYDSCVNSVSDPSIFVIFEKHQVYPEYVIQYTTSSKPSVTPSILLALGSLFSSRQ

[13] = Time at which free-drug concentration exceeds in vitro cellular EC50 for inhibition of tankyrase 1/2 in human DLD1 cells assessed as increase in axin2 accumulation in mouse xenografted with human DLD1 at 30 mg/kg, po administered via gavage; type: organism-based; details: in vivo
[14] = Time at which free-drug concentration exceeds in vitro cellular EC50 for inhibition of tankyrase 1/2 in human DLD1 cells assessed as increase in axin2 accumulation in mouse xenografted with human DLD1 at 10 mg/kg, po administered via gavage; type: organism-based; details: in vivo
[15] = Intrinsic clearance in human liver microsomes assessed per mg protein in presence of NADPH by UPLC analysis; type: ADME, Microsome; details: read-out: CLH

Sequence of Poly [ADP-ribose] polymerase 1 (P09874 whole entry): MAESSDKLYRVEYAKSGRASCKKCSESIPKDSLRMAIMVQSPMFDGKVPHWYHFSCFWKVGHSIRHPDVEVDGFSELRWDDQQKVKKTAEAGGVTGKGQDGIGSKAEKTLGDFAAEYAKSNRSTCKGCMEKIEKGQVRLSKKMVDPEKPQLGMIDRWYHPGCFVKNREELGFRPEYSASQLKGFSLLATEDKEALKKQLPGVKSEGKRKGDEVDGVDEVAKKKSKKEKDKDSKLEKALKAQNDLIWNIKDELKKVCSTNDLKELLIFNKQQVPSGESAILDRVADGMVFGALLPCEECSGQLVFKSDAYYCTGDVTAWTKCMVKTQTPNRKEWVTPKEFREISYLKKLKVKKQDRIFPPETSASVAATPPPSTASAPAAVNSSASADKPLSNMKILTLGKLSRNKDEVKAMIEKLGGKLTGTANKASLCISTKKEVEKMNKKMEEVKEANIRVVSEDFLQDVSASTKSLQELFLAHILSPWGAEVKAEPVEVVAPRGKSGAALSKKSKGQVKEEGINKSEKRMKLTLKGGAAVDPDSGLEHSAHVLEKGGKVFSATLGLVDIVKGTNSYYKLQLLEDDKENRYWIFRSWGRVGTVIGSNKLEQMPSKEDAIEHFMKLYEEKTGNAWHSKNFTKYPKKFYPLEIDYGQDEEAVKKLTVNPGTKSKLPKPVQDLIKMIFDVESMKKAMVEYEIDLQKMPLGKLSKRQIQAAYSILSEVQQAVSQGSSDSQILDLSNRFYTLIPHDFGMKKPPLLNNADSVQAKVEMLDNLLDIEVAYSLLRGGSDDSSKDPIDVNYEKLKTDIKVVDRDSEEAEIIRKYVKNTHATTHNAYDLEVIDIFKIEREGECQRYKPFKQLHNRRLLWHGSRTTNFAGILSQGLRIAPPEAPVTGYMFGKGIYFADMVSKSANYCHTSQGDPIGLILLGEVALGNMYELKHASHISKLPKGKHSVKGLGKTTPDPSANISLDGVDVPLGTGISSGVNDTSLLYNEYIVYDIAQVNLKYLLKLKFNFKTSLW
Sequence of Protein mono-ADP-ribosyltransferase PARP6 (Q2NL67 whole entry): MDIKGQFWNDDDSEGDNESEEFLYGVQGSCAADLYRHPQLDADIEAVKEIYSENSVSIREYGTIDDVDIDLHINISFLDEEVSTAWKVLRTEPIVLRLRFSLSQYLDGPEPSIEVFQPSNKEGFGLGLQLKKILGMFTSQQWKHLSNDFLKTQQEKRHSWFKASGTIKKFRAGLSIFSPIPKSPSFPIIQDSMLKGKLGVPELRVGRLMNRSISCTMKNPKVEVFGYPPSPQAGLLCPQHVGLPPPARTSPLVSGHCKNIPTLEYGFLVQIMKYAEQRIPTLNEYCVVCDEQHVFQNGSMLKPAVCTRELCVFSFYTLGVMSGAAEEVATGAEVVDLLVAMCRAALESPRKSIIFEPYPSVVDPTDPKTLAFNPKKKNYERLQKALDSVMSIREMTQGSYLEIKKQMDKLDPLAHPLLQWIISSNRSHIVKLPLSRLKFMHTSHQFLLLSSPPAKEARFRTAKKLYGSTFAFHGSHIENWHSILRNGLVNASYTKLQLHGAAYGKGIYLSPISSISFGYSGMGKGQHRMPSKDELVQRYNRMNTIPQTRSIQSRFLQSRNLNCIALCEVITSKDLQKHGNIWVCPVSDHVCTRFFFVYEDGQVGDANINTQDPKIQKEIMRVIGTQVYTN
Sequence of Poly [ADP-ribose] polymerase 2 (Q9UGN5 whole entry, the tested form may be a part): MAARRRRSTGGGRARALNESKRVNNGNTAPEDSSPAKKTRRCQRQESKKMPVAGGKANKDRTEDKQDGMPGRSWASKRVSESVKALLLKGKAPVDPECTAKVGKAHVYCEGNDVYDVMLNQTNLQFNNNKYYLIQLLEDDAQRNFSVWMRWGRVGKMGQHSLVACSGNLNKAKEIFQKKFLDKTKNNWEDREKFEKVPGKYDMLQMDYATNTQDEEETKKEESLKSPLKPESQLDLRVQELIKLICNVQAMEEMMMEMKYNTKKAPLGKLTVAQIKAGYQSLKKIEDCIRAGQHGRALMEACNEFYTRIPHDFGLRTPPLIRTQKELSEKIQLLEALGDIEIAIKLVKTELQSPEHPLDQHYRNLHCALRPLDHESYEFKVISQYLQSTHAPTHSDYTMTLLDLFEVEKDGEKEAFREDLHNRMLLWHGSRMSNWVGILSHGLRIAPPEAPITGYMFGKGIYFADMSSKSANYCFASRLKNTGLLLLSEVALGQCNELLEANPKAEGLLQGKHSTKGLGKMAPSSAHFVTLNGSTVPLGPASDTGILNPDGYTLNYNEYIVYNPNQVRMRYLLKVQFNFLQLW

- IC50 [1]: 1000 nM
- T>fEC50 [2]: >= 12 hr
- IC50 [3]: > 10000 nM
- IC50 [4]: 782 nM
- Papp A→B at 2 h, 1 µM [5]: 40 ×10⁻⁶ cm/s
- hepatocyte CLint [6]: 1.25 µL/min/1e6 cells
- IC50 [7]: > 10000 nM
- fraction unbound [8]: 0.086
- T>fEC50 [9]: >= 20 hr
- microsomal CLint [10]: 22 µL/min/mg
- half-life [11]: 1.4 h
- IC50 [12]: > 10000 nM
- T>fEC50 [13]: >= 12 hr
- T>fEC50 [14]: >= 12 hr
- microsomal CLint [15]: < 10 µL/min/mg
SMILES: CC(C)(O)c1ccc(-c2nc3c(F)cc(F)cc3c(=O)[nH]2)cc1
